{
  "source": "patent EP0127076A2",
  "about": "“Histargin, a microbiological process for its preparation, its use as a medicament, and the strain Streptomyces roseoviridis having the ability to produce histargin” (MICROBIAL CHEMISTRY RESEARCH FOUNDATION, priority 1983, dated 1984)",
  "key": {"Wistar rats": {"test_system": "Wistar rats", "test": "potentiation of morphine-induced analgesia, tail-flick technique in morphine-unresponsive rats", "assay_type": "in vivo"}, "carboxypeptidase B": {"target": "T1, carboxypeptidase B (Sus scrofa, UniProt P09955)", "T1 construct": "purified carboxypeptidase B (a product of Boehringer-Mannheim obtained from the pancreas of pigs); purchased Boehringer-Mannheim; host or cells: pig pancreas", "T1 sequence (P09955 111-416)": "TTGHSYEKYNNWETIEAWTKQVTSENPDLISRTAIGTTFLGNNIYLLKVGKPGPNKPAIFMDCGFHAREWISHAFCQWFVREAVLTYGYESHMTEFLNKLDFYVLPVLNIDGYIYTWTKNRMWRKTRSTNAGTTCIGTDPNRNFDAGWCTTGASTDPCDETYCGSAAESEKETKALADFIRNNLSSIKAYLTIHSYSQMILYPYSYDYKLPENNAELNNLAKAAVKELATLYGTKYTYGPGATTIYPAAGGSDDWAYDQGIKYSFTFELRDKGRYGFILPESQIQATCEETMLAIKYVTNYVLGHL", "test": "anti-carboxypeptidase B activity (hippuryl-L-lysine substrate, cyanuric chloride colour reaction)", "assay_type": "biochemical", "details": "purified carboxypeptidase B from the pancreas of pigs, 37°C, pH 8.0; read-out: 50 % inhibition (IC50) against carboxypeptidase B (converted)", "experimental": "Histargin in the cultivation and purification steps was traced by measuring anti-carboxypeptidase B activity. Anti-carboxypeptidase B activity was measured in the following way according to an improved method based on the angiotensin I transferase activity determination method described in M.Hayakari et al., \"Analytical Biochemistry,\" 84, 361-369, 1978.\nA mixed solution was prepared by adding 0.25 ml of 0.05M Tris-hydrochloric acid buffer solution (pH 8.0) and 0.15 ml of a solution containing a histargin sample to 0.05 ml of 0.05M hippuryl-L-lysine (a product of Peptide Institute). The mixed solution was heated for 3 minutes at 37°C, and 0.05 ml of an aqueous solution of 1 µg/ml of purified carboxypeptidase B (a product of Boehringer-Mannheim obtained from the pancreas of pigs) was added to the mixed solution. To the resulting mixture was added 0.03 ml of 1N sodium hydroxide to terminate the reaction. Fifteen minutes later, 2 ml of a 1 % methyl cellosolve solution of cyanuric chloride was added for a color reaction. After the mixture was allowed to stand for 15 minutes at room temperature, the absorbance (a) at 382 nm was measured. Separately, there was measured the blank absorbance (b) of the same reaction mixture except that the histargin sample was not contained. The percent inhibition against carboxypeptidase B was calculated from the equation [(b - a)/b] x 100."}, "Slc-CDF1 mice": {"test_system": "Slc-CDF1 mice", "test": "cell-mediated immunity: delayed-type hypersensitivity (D.T.H.) to sheep red blood cell, footpad swelling", "assay_type": "in vivo", "details": "normal mice, 5, 0.5, 0,05 and 0.005 mg/kg once intraperitoneally; statement on Table 1 (image)", "experimental": "This effect was investigated using as its index the degree of delayed- type hypersensitivity (D.T.H.) to sheep red blood cell (SRBC) injectd intravenously as an antigen (see J. Exp. Med. 139, 1529-1539, 1974).\nA suspension of 10^5 SRBCs in 0.05 ml of physiological saline solution was injected intravenously into Slc-CDF1 mice (female, 9 weeks old). Simultaneously, histargin monohydrate in doses of 5, 0.5, 0,05 and 0.005 mg/kg was administerd once intraperitoneally as a solution dissolved in physiological saline solution.\nFour days after admnistration, a suspension of 10^8 SRBCs in 0.05 ml of physiological saline solution was injected subcutaneously to the footpads to induce D.T.H. Twenty-four hours after the subcutaneous injection, footpad swellings (increases in the foot thicknesses) were measured with a caliper. The mean footpad swelling in control animals receiving SRBCs and physiological saline solution but without the test compound was designated as C, which was set at 100 %• The mean footpad swelling in animals treated with SRBCs, physiological saline solution, and the test compound was designated as T. The ratio of T to C was calculated to evaluate the effect of the test compound to potentiate cell-mediated immunity."}, "enkephalinase B": {"test_system": "enkephalinase B", "test": "enkephalinase B inhibition (tritiated methionine enkephalin hydrolysis)", "assay_type": "biochemical, crab-eating monkeys", "details": "concentration of 100 µg/ml, pH 7.0", "experimental": "Enkephalinase B was obtained by homogenizing the brains of crab-eating monkeys, fractionating the homogenate, and purifying soluble fractions in accordance with the method of Hazato et al. (Biochemical and Biophysical Research Communications, Vol. 105, No. 2, pp. 470-475, 1982). The inhibitory activity of histargin against enkephalinase B was measured by the method of Hasato et al. described in the same reference.\nTen µmol of methionine enkephalin (Tyr-Gly-Gly-Phe-Met) having the terminal tyrosine partially tritiated was used as a substrate. This substrate was hydrolyzed with enkephalinase B in 100 µl of […] Tris-hydrochloric acid buffer solution (pH 7.0). The segment, Tyr-Gly, resulting from hydrolysis was separated using a column of Porapak Q (a product of Whatman), and determined quantitatively based on its radioactivity. The results obtained when the above reaction was carried out in the presence of histargin were compared with those obtained when the reaction was performed in the absence of histargin. Based on the comparison, the enkephalinase B-inhibiting activity of histragin was evaluated."}},
  "data": [
    {"compound": "CC(C)C[C@H](NC(=O)[C@@H](O)[C@H](N)Cc1ccccc1)C(=O)O", "note": "[Bestatin]", "values": [
      {"measurement": "Potentiation of morphine-induced analgesia (%)", "setting": "Wistar rats; 250 mg/kg, for comparison, Wistar rats", "result": 19.9, "unit": "%"}
    ]},
    {"compound": "CN1CC[C@]23c4c5ccc(O)c4O[C@H]2[C@@H](O)C=C[C@H]3[C@H]1C5", "note": "[Morphine]", "values": [
      {"measurement": "Potentiation of morphine-induced analgesia (%)", "setting": "Wistar rats; morphine only 0.5 mg/kg (control group)", "result": 0, "unit": "%"},
      {"measurement": "Potentiation of morphine-induced analgesia (%)", "setting": "Wistar rats; morphine only 2 mg/kg", "result": 28.4, "unit": "%"},
      {"measurement": "Potentiation of morphine-induced analgesia (%)", "setting": "Wistar rats; morphine only 3 mg/kg", "result": 35.1, "unit": "%"}
    ]},
    {"compound": "N=C(N)NCCCC(NCCNC(Cc1cnc[nH]1)C(=O)O)C(=O)O", "note": "(centres unmarked) [histargin monohydrate, histargin]", "values": [
      {"measurement": "IC50", "setting": "carboxypeptidase B", "result": 33.8, "unit": "µM"},
      {"measurement": "effect on cell-mediated immunity (D.T.H. footpad swelling, T/C)", "setting": "Slc-CDF1 mice", "result": "potentiates cell-mediated immunity"},
      {"measurement": "Potentiation of morphine-induced analgesia (%)", "setting": "Wistar rats; 100 mg/kg intraperitoneally + 0.5 mg/kg morphine, morphine-unresponsive Wistar rats", "result": 33.8, "unit": "%"},
      {"measurement": "inhibition against enkephalinase B", "setting": "enkephalinase B", "result": 92, "unit": "%"}
    ]}
  ]
}
